How the values were obtained:
[1] = Solubility of secondary probes in labeling buffer; type: physicochemical; settings: 0.2 M NH4Ac, pH 5.5, 25 °C
Description: However, as we moved to shorter PNA oligomers, solubility saw a substantial, nonlinear increase. […] For example, at 25 °C, the maximum soluble concentration of HP17 (12-mer) was around 6 μM. […]
pH 5.5 at 25°C. Dilution series of HPLC-purified and lyophilized secondary probes (1, 3, 6, 9, 13, 26, 39, 52 and 65 µM) for […]
samples were heated at 95°C for five minutes and concentration of the soluble fraction was determined by UV absorption at 260 nm before (grey bars), and after (black bars) an 18-hour static incubation at 25°C. Duplicates were prepared of all samples and the data is presented as the mean ± SD. The maximum soluble concentration of each probe, indicated in panels A-E as a dotted line, was defined as the highest concentration at which at least 95% is still in the soluble fraction after an 18-hour incubation at 25°C. PNA-aggregates are temperature-labile, as exemplified in panel C for 82 µM HP17.
After an 18-hour incubation 25°C, 6 µM is left in the soluble fraction (left black bar) but heating the sample at 95 °C for five minutes completely redissolved HP17 aggregates into solution (right black bar).
(§1) (1 picture or pasted object on this page, not shown here)
Supplementary Material and methods
Solubility of secondary probes
HPLC-purified and freeze-dried secondary probes were resuspended in 10 mM NaAc, pH 3.5-3.6 and freeze-dried in smaller aliquots. The secondary probes were re-dissolved in 0.2 M NH4Ac, pH 5.5, and the samples were heated at 95 °C for five minutes to ensure complete dissolvement. Dilution series of secondary probes (1, 3, 6, 9, 13, 26, 39, 52 and 65 μM) for […]
NH4Ac, pH 5.5. The samples were then left for an 18-hour static incubation at 25 C, before being centrifugated at 21,100 x g for 5 minutes on a standard benchtop centrifuge (Eppendorf). The supernatants were transferred to fresh 1.5 mL Eppendorf-tubes, and the […]

Z-HP12 = experiment: SPR off-rate screening (single-cycle kinetics), immobilized Z-HP12; type: binding; settings: primary probe HP12 (immobilized Z-HP12), 25 °C, PBS-T pH 7.4, 120 nM HP16/HP20 or 362 nM HP21/HP19, dissociation 150 min, 1:1 model, duplicates
Description: (§2) The stability of new pretargeting probe combinations was assessed using SPR, and duplex melting temperatures were measured with UV–vis spectroscopy. In SPR, a high concentration of the secondary probe was injected over immobilized primary agents, and the dissociation of the hybridized complexes was monitored over 150 min (see Figures 3A, S22, and Table 2).
(§3) We utilized SPR on a Biacore T200 instrument (Cytiva) to examine how secondary PNA probes (6-mer HP19, 7-mer HP21, 8-mer HP20, and 9-mer HP16) bind to primary agents. These experiments were conducted using dextran-coated CM5 sensor chips and PBS-T buffer at pH 7.4. The ligands were immobilized through a standard EDC/NHS coupling method, and the chip surface was sealed with ethanolamine. A reference surface with no primary agent was also included.
(§4) For ranking the off-rate (kd) of the secondary probes, we employed single-cycle kinetics (SCK) at 25 °C with a flow rate of 50 μL/min. […] Secondary PNA probes were injected at various concentrations, and dissociation was monitored for 10,000 s. To regenerate the chip surface, we used two 30 s injections of 10 mM glycine-HCl, pH 1.5.
(§5) All SPR experiments were performed in duplicate, and data analysis was conducted using the Biacore T200 Evaluation software version 2.0 with a 1:1 binding model.
(§6) Figure S22: Representative SPR sensorgrams of the dissociation phase of HP16 (9-mer), HP20 (8-mer), HP21 (7-mer) and HP19 […]
(§7) After injection with the secondary probe
(§8) (120 nM of HP16 and HP20 or 362 nM of HP21 and HP19) the dissociation of the formed complex was followed for 150 minutes. All experiments were done in duplicates, and the data presented is double-referenced (reference channel and buffer injection are subtracted).
as §1

HP12 = experiment: UV melting of PNA:PNA duplex with primary probe HP12; type: physicochemical; settings: UV 260 nm, 20-95 °C at 1 °C/min, 5 μM each probe, 10 mM phosphate buffer, 10 mM KCl, pH 7.4
Description: (§9) The melting temperatures of secondary probes after duplex formation with primary probes were also measured by monitoring the absorbance at 260 nm as a function of temperature (see Figure S23). All probe pairs had melting temperatures well above 37 °C (body temperature) and ranged from 51 °C for the HP6:HP19 pair with 6 complementary bases to 82 °C for the previously studied HP15:HP18 pair with 15 complementary bases (see Figure 3B and Table 2). […] This secondary structure is typically adopted by antiparallel and L-amino acid-modified PNA–PNA duplexes at neutral pH.[49]
(§10) Figure S23: Normalized temperature melting profiles from 20–95°C for different primary and secondary probe pairs. UV melting curves at 260 nm. (A) HP15 (15-mer) toward secondary 15-, 12- and 9-mers. (B) HP12 (12-mer) toward secondary 12-, 9-, 8-, 7- and 6-mers. (C) HP9 (9-mer) toward secondary 9-, 8-, 7- and 6-mers. (D) HP6 (6-mer) toward secondary 6-mer.
(§11) Concentrations of duplexes in A–D are 5 μM in 10 mM […] with 10 mM KCl at pH 7.4.
(§12) (also on this page, place not known: Fraction melted Fraction meltedFraction melted Fraction melted) […]
(§13) Supplementary Material and methods […]
(§14) Biophysical characterization of PNA:PNA duplexes using CD Spectroscopy and […]
Circular dichroism (CD) and UV melts of PNA:PNA duplexes were measured on a CD spectrometer (Applied Photophysics, Leatherhead, UK) with Peltier temperature control and an external temperature probe. RP-HPLC purified and lyophilized PNA probes were dissolved in 10 mM phosphate buffer with 10 mM KCl at pH 7.4. Samples contained both primary and complementary secondary PNA probes at a final concentration of 5 µM for each probe. These samples were initially heated to 95°C for five minutes, allowed to cool to room temperature, and then transferred to a quartz cuvette with a 1.0 cm path length. A temperature probe was inserted into the solution through the cuvette's rubber cap. […]
(§15) from 20°C to 95°C with a 1°C/min temperature gradient. Simultaneously, the UV absorbance at 260 nm was recorded as a function of temperature. Fraction melted data was calculated […]
(§16) Fraction melted = 1 ― UVds― UVss , where UVss and UVds are the UV absorbances at 95°C and 20°C, respectively. The melting temperature (Tm) was determined as the maximum of the first derivative of the melting curve and was computed using the Global 3 analysis software (Applied Photophysics, […]
CD spectra in the range of 200–300 nm were recorded for all hybridized PNA:PNA pairs at 20°C before and after the UV melting experiments. All CD spectra were baseline subtracted and presented as an average of five scans.

HP15 = experiment: UV melting of PNA:PNA duplex with primary probe HP15; type: physicochemical; settings: UV 260 nm, 20-95 °C at 1 °C/min, 5 μM each probe, 10 mM phosphate buffer, 10 mM KCl, pH 7.4
Description: as §9, §10, §11, §12, §13, §14
Circular dichroism (CD) and UV melts of PNA:PNA duplexes were measured on a CD spectrometer (Applied Photophysics, Leatherhead, UK) with Peltier temperature control and an external temperature probe. […]
as §15, §16
CD spectra in the range of 200–300 nm were recorded for all hybridized PNA:PNA pairs at 20°C before and after the UV melting experiments. […]

Z-HP9 = experiment: SPR off-rate screening (single-cycle kinetics), immobilized Z-HP9; type: binding; settings: primary probe HP9 (immobilized Z-HP9), 25 °C, PBS-T pH 7.4, 120 nM HP16/HP20 or 362 nM HP21/HP19, dissociation 150 min, 1:1 model, duplicates
Description: as §2, §3, §4, §5, §6, §7, §8, §1

DOTA-AEEA-SS-aacaccagg-EEY-NH2 [HP16, 9-mer secondary PNA probe with DOTA]
increase in solubility compared to the 15-mer HP18 [1]: ~10 fold
maximum soluble concentration ([1]; heated 95 °C 5 min, 18-h static incubation, centrifugation, UV 260 nm of supernatant, highest concentration with at least 95% still soluble, duplicates): 26 µM
kd (Z-HP12): 1.3 × 10^–5 s^–1
Tm (HP12): 68 °C
Tm (HP15): 73 °C
kd (Z-HP9): 2.5 × 10^–5 s^–1

From publication PMC11091976, “Shorter Peptide Nucleic Acid Probes Improve Affibody-Mediated Peptide Nucleic Acid-Based Pretargeting” (ACS Pharmacology & Translational Science, 2024)
